Results on 24 molecules are retold here after patent US11236055B2 (Venenum Biodesign, LLC, priority 2016, dated 2022).

Broadly, the EC50 is the concentration that produces a half-maximal response.

Assay [1] deals with T1, mouse TGR5 receptor (Mus musculus, UniProt Q80SS6).
T1 construct: expressed in transfected cells; host or cells: HEK293-EBNA (293 c18, ATCC CRL10852), Hygromycin B selection
T1 sequence (Q80SS6 1-329): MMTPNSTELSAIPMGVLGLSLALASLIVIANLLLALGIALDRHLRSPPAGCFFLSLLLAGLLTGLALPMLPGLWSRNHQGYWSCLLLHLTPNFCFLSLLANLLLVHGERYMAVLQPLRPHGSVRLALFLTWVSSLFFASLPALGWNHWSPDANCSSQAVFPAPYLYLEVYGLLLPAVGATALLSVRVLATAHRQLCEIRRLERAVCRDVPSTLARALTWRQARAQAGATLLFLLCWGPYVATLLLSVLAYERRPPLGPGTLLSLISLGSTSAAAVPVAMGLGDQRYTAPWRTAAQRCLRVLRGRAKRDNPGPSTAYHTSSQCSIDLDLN
Nature of the assay: Mouse TGR5 cAMP production assay (HTRF, Cisbio cAMP HiRange). It is filed as cell-based. Conditions: HEK293-EBNA cells overexpressing mouse TGR5, HTRF cAMP HiRange; coded A-D. An outline of the steps: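 cAMP read by HTRF competition after 1 h room-temperature compound exposure of mouse TGR5-overexpressing HEK293-EBNA cells. Cells were suspended in serum-free DMEM containing 500 μM IBMX; compounds ran as 12-point half-log dilutions in duplicate; EC50 derived.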

For assay [2], the target named is T2, human TGR5 receptor (Homo sapiens, UniProt Q8TDU6).
T2 construct: host or cells: CHO-K1 (hTGR5-CHO cells)
T2 sequence (Q8TDU6 1-330): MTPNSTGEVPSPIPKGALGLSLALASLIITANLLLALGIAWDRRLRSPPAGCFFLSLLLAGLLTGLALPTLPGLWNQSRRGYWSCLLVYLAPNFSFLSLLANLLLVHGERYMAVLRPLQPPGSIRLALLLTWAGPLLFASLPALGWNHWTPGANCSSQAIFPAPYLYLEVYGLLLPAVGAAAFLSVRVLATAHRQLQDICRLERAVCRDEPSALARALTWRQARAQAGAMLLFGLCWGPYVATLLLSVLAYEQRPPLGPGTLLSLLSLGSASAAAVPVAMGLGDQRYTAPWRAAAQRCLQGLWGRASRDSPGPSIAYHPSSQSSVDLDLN
Briefly: Human TGR5 cAMP production assay. It is filed as cell-based. Conditions: human TGR5, luminescent cAMP assay; coded A-D; read-out: Human TGR5 Lum. cAMP Activity (EC50). Summed up: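 Intracellular cAMP read by luminescent enzyme-complementation (XS+) after overnight development, following 1 h room-temperature compound treatment of hTGR5-CHO-K1 cells in IBMX plus anti-cAMP antibody. Compounds tested as half-log dilution series; EC50 derived.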
For orientation: cAMP levels reflect the balance of adenylyl cyclase and phosphodiesterase activity.

Some results are limits rather than exact numbers.

As to `CN(C)C(=O)c1cnccc1-c1cccc(C(C)(C)NS(=O)(=O)c2ccccc2C(F)(F)F)c1` [Compound 11, N,N-dimethyl-4-(3-(2-(2-(trifluoromethyl)phenylsulfonamido)propan-2-yl)phenyl)nicotinamide], the half-maximal effective concentration (EC50) in assay [1] and in assay [2] was 1000 to 30000 nM throughout.
On to `Cc1c(Cl)cccc1S(=O)(=O)N[C@@H](C)c1cccc(-n2ccncc2=O)c1` [Compound 12, (S)-3-chloro-2-methyl-N-(1-(3-(2-oxopyrazin-1(2H)-yl)phenyl)ethyl)benzenesulfonamide], for which the EC50 fell in the range of 1000 to 30000 nM in assay [1] and 100 to 999 nM in assay [2].
Taken in the same sequence, the figures for `Cc1c(Cl)cccc1S(=O)(=O)N(CCCC(=O)O)[C@@H](C)c1cccc(-c2ccncc2)c1` [Compound 14AD, (S)-4-(3-chloro-2-methyl-N-(1-(3-(pyridin-4-yl)phenyl)ethyl)phenylsulfonamido)butanoic acid] were 100 to 999 nM and 100 to 999 nM.
As for `Cc1nccc(-c2cccc([C@H](C)N(CCCC(=O)O)S(=O)(=O)c3cccc(Cl)c3C)c2)c1C` [Compound 14AG, (S)-4-(3-chloro-N-(1-(3-(2,3-dimethylpyridin-4-yl)phenyl)ethyl)-2-methylphenylsulfonamido)butanoic acid], the EC50 in assay [1] and in assay [2] was 100 to 999 nM each time.
Turning to `Cc1cnccc1-c1cccc([C@H](C)N(CCCC(=O)O)S(=O)(=O)c2ccccc2C(F)(F)F)c1` [Compound 15, (S)-4-(N-(1-(3-(3-methylpyridin-4-yl)phenyl)ethyl)-2-(trifluoromethyl)phenylsulfonamido)-butanoic acid], the EC50 in assay [1] was 100 to 999 nM; in assay [2] it was below 100 nM.
For `CCc1cnccc1-c1cccc([C@H](C)N(CCCC(=O)O)S(=O)(=O)c2ccccc2C(F)(F)F)c1` [Compound 15AB, (S)-4-(N-(1-(3-(3-ethylpyridin-4-yl)phenyl)ethyl)-2-(trifluoromethyl)phenylsulfonamido)butanoic acid], in that order: below 100 nM and below 100 nM.
Take `Cc1cnccc1-c1cccc([C@H](CCCC#N)N(CCCC(=O)OC(C)(C)C)S(=O)(=O)c2cccc(Cl)c2C)c1` [Compound 15AC, (S)-tert-butyl 4-(3-chloro-N-(4-cyano-1-(3-(3-methylpyridin-4-yl)phenyl)butyl)-2-methylphenylsulfonamido) butanoate]: the results for the EC50 in assay [1] and in assay [2] were 1000 to 30000 nM and 100 to 999 nM, respectively.
For `Cc1cnccc1-c1cccc([C@H](CCCC#N)N(CCCC(=O)O)S(=O)(=O)c2cccc(Cl)c2C)c1` [Compound 15AD, (S)-4-(3-chloro-N-(4-cyano-1-(3-(3-methylpyridin-4-yl)phenyl)butyl)-2-methylphenylsulfonamido) butanoic acid], in that order: 100 to 999 nM and 100 to 999 nM.
For `Cc1cnccc1-c1cccc([C@@H](C)N(CCCC(=O)O)S(=O)(=O)c2cccc(Cl)c2C)c1` [Compound 16AA, (R)-4-(3-chloro-2-methyl-N-(1-(3-(3-methylpyridin-4-yl)-phenyl)ethyl)phenylsulfonamido)butanoic acid], in that order: 1000 to 30000 nM and 100 to 999 nM.
Take `CCc1cnccc1-c1cccc([C@H](C)N(CCCC(=O)O)S(=O)(=O)c2cccc(Cl)c2C)c1` [Compound 16AB, (S)-4-(3-chloro-N-(1-(3-(3-ethylpyridin-4-yl)phenyl)ethyl)-2-methylphenyl-sulfonamido)butanoic acid]: the EC50 in assay [1] and in assay [2] was below 100 nM each time.
Consider `Cc1c(Cl)cccc1S(=O)(=O)N(CCCC(=O)O)C(C)(C)c1cccc(-c2ccncc2CO)c1` [Compound 16AC, 4-(3-chloro-N-(2-(3-(3-(hydroxymethyl)pyridin-4-yl)-phenyl)propan-2-yl)-2-methylphenylsulfonamido)butanoic acid], for which the 50% effective concentration (EC50) in assay [1] was 100 to 999 nM; in assay [2], below 100 nM.
Taken in the same sequence, the figures for `Cc1cnccc1-c1cccc([C@H](C)N(CCCC(=O)O)S(=O)(=O)c2ccccc2C)c1` [Compound 16AD, (S)-4-(2-methyl-N-(1-(3-(3-methylpyridin-4-yl)phenyl)-ethyl)phenylsulfonamido)butanoic acid] were 100 to 999 nM and 100 to 999 nM.
Taken in the same sequence, the figures for `Cc1cnccc1-c1cccc([C@H](C)N(CCCCC(=O)O)S(=O)(=O)c2cccc(Cl)c2C)c1` [Compound 16AF, (S)-5-(3-chloro-2-methyl-N-(1-(3-(3-methylpyridin-4-yl)phenyl)ethyl)phenylsulfonamido)pentanoic acid] were 100 to 999 nM and below 100 nM.
Taken in the same sequence, the figures for `CCc1cnccc1-c1cccc([C@H](C)N(CCCCC(=O)O)S(=O)(=O)c2cccc(Cl)c2C)c1` [Compound 16AG, (S)-5-(3-chloro-N-(1-(3-(3-ethylpyridin-4-yl)phenyl)-ethyl)-2-methylphenyl-sulfonamido)pentanoic acid] were below 100 nM and below 100 nM.
As to `Cc1cnsc1-c1cccc([C@H](C)N(CCCC(=O)O)S(=O)(=O)c2cccc(Cl)c2C)c1` [Compound 16AJ, (S)-4-(3-chloro-2-methyl-N-(1-(3-(4-methylisothiazol-5-yl)phenyl)ethyl)phenyl-sulfonamido)butanoic acid], the EC50 in assay [1] and in assay [2] was 1000 to 30000 nM throughout.
Regarding `Cc1cnccc1-c1cccc([C@H](C)N(CCC(=O)O)S(=O)(=O)c2cccc(Cl)c2C)c1` [Compound 16AK, (S)-3-(3-chloro-2-methyl-N-(1-(3-(3-methylpyridin-4-yl)phenyl)ethyl)phenylsulfonamido)propanoic acid], the concentration giving a half-maximal response (EC50) in assay [1] and in assay [2] was 1000 to 30000 nM in each case.
`Cc1cnccc1-c1cccc(C2(N(CCCC(=O)O)S(=O)(=O)c3cccc(Cl)c3C)COC2)c1` [Compound 16AL, 4-(3-chloro-2-methyl-N-(3-(3-(3-methylpyridin-4-yl)phenyl)-oxetan-3-yl)phenyl-sulfonamido)butanoic acid]: the EC50 in assay [1] and in assay [2] was 100 to 999 nM each time.
In the case of `Cc1cnccc1-c1cccc([C@H](C)N(CCOCC(=O)O)S(=O)(=O)c2cccc(Cl)c2C)c1` [Compound 16AM, (S)-2-(2-(3-chloro-2-methyl-N-(1-(3-(3-methylpyridin-4-yl)phenyl)ethyl)phenylsulfonamido)ethoxy)acetic acid], the EC50 in assay [1] and in assay [2] was 100 to 999 nM in each case.
As for `Cc1cnccc1-c1cccc([C@H](C)N(CCCC(=O)O)S(=O)(=O)c2cccc(Cl)c2C)c1` [Compound 16], the EC50 is below 100 nM in assay [1] and 100 to 999 nM in assay [2].
For `Cc1cnccc1-c1cccc([C@H](CC(=O)O)NS(=O)(=O)c2ccccc2C(F)(F)F)c1` [Compound 18, (S)-3-(3-(3-methylpyridin-4-yl)phenyl)-3-(2-(trifluoromethyl)phenylsulfonamido)propanoic acid], the EC50 in assay [1] fell in the range of 100 to 999 nM; in assay [2], 1000 to 30000 nM.
Taken in the same sequence, the figures for `Cc1cnccc1-c1cccc(C(CCC(=O)O)NS(=O)(=O)c2ccccc2C(F)(F)F)c1` (stereo not drawn) [Compound 19, 4-(3-(3-methylpyridin-4-yl)phenyl)-4-(2-(trifluoromethyl)phenylsulfonamido)butanoic acid] were 100 to 999 nM and 1000 to 30000 nM.
Taken in the same sequence, the figures for `Cc1cnccc1-c1cccc([C@H](CCCC(=O)O)NS(=O)(=O)c2ccccc2C(F)(F)F)c1` [Compound 19AA, (S)-5-(3-(3-methylpyridin-4-yl)phenyl)-5-(2-(trifluoromethyl)phenylsulfonamido) pentanoic acid] were 100 to 999 nM and 100 to 999 nM.
Taken in the same sequence, the figures for `Cc1cnccc1-c1cccc([C@H](C)N(CCCCC(=O)NC[C@@H](O)[C@H](O)[C@@H](O)[C@@H](O)CO)S(=O)(=O)c2cccc(Cl)c2C)c1` [Compound 20AI, 5-(3-chloro-2-methyl-N-((S)-1-(3-(3-methylpyridin-4-yl)phenyl)ethyl)phenylsulfonamido)-N-((2R,3S,4S,5S)-2,3,4,5,6-pentahydroxyhexyl)pentanamide] were 100 to 999 nM and below 100 nM.
Take `Cc1cnccc1-c1cccc([C@H](C)N(CCCC(=O)NCCS(N)(=O)=O)S(=O)(=O)c2cccc(Cl)c2C)c1` [Compound 20AJ, (S)-4-(3-chloro-2-methyl-N-(1-(3-(3-methylpyridin-4-yl)phenyl)ethyl)phenylsulfonamido)-N-(2-sulfamoylethyl)butanamide]: the EC50 in assay [1] is 100 to 999 nM; in assay [2], below 100 nM.
